# Assay results reported in ChEMBL document CHEMBL1201862, “PubChem BioAssay data set” (2004).
#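 48-hour exposure; five concentrations; linearly interpolated endpoints. At the GI50, growth is halved.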 The source made the active and inactive calls. Rule as the data show it: active = GI50 up to about 1.1 µM and inactive = higher.
# Tests used:
# Experiment in all cases: inhibition of tumour cell growth, NCI panel, 48 h
# [1] = tested on: SK-MEL-28
# [2] = tested on: NCI-H460
# [3] = tested on: LOX IMVI
# [4] = tested on: DU-145
# [5] = tested on: NCI-H226
# [6] = tested on: HCC 2998
# [7] = tested on: U-251
# [8] = tested on: UACC-257
# [9] = tested on: HOP-92
# [10] = tested on: HOP-18
# [11] = tested on: KM12
# [12] = tested on: HCT-15
# [13] = tested on: MCF7
# [14] = tested on: Malme-3M
# [15] = tested on: 786-0
# [16] = tested on: SW-620
# [17] = tested on: TK-10
# [18] = tested on: MDA-N
# [19] = tested on: SNB-75
# [20] = tested on: A498
# [21] = tested on: NCI/ADR-RES
# [22] = tested on: DMS-273
# [23] = tested on: COLO 205
# [24] = tested on: LXFL 529
# [25] = tested on: OVCAR-5
# [26] = tested on: HCT-116
# [27] = tested on: HT-29
# [28] = tested on: UO-31
# [29] = tested on: OVCAR-4
# [30] = tested on: RXF 393
# [31] = tested on: SNB-19
# [32] = tested on: NCI-H522
# [33] = tested on: SN12C
# [34] = tested on: UACC-62
# [35] = tested on: SK-MEL-5
# [36] = tested on: KM-20L2
# [37] = tested on: ACHN
# [38] = tested on: Hs-578T
# [39] = tested on: RPMI-8226
# [40] = tested on: SF-539
# [41] = tested on: OVCAR-3
# [42] = tested on: SK-MEL-2
# [43] = tested on: DLD-1
# [44] = tested on: DMS-114
# [45] = tested on: PC-3
# [46] = tested on: SF-268
# [47] = tested on: EKVX
# [48] = tested on: CAKI-1
# [49] = tested on: OVCAR-8
# [50] = tested on: M19-MEL
# [51] = tested on: SR
# [52] = tested on: A549
# [53] = tested on: CCRF-CEM
# [54] = tested on: SK-OV-3
# [55] = tested on: MDA-MB-435
# [56] = tested on: M14
# [57] = tested on: SNB-78
# [58] = tested on: IGROV-1
# [59] = tested on: T47D
# [60] = tested on: MDA-MB-231
# [61] = tested on: MOLT-4
# [62] = tested on: NCI-H23
# [63] = tested on: K562
# [64] = tested on: HL-60
# [65] = tested on: SF-295
# [66] = tested on: XF498
# [67] = tested on: HOP-62
smiles,measurement,setting,value
Cc1csc2c1C(=O)c1ccsc1C2=O,GI50,[1],1.53 µM (inactive)
same,GI50,[2],1.87 µM (inactive)
same,GI50,[3],1.26 µM (inactive)
same,GI50,[4],1.88 µM (inactive)
same,GI50,[5],11 µM (inactive)
same,GI50,[6],6.11 µM (inactive)
same,GI50,[7],3.4 µM (inactive)
same,GI50,[8],1.52 µM (inactive)
same,GI50,[9],3.56 µM (inactive)
same,GI50,[10],1.95 µM (inactive)
same,GI50,[11],2.96 µM (inactive)
same,GI50,[12],1.49 µM
same,GI50,[13],1.41 µM (inactive)
same,GI50,[14],0.343 µM (active)
same,GI50,[15],4.63 µM (inactive)
same,GI50,[16],2.47 µM (inactive)
same,GI50,[17],19.1 µM (inactive)
same,GI50,[18],0.293 µM (active)
same,GI50,[19],1.97 µM (inactive)
same,GI50,[20],18.2 µM (inactive)
same,GI50,[21],1.87 µM (inactive)
same,GI50,[22],1.94 µM (inactive)
same,GI50,[23],12.2 µM (inactive)
same,GI50,[24],3.42 µM (inactive)
same,GI50,[25],1.96 µM (inactive)
same,GI50,[26],2.17 µM (inactive)
same,GI50,[27],2.65 µM (inactive)
same,GI50,[28],2.87 µM (inactive)
same,GI50,[29],1.89 µM (inactive)
same,GI50,[30],3.21 µM (inactive)
same,GI50,[31],3.37 µM (inactive)
same,GI50,[32],2.21 µM (inactive)
same,GI50,[33],2.2 µM (inactive)
same,GI50,[34],1.69 µM (inactive)
same,GI50,[35],0.589 µM (active)
same,GI50,[36],4.28 µM (inactive)
same,GI50,[37],2.98 µM (inactive)
same,GI50,[38],1.81 µM (inactive)
same,GI50,[39],3.61 µM (inactive)
same,GI50,[40],2.01 µM (inactive)
same,GI50,[41],2.07 µM (inactive)
same,GI50,[42],2.03 µM (inactive)
same,GI50,[43],2.68 µM (inactive)
same,GI50,[44],1.69 µM (inactive)
same,GI50,[45],2.58 µM (inactive)
same,GI50,[46],2.96 µM (inactive)
same,GI50,[47],7.98 µM (inactive)
same,GI50,[48],19.6 µM (inactive)
same,GI50,[49],2.99 µM (inactive)
same,GI50,[50],0.175 µM (active)
same,GI50,[51],4.15 µM (inactive)
same,GI50,[52],1.72 µM (inactive)
same,GI50,[53],4.03 µM (inactive)
same,GI50,[54],20.4 µM (inactive)
same,GI50,[55],0.215 µM (active)
same,GI50,[56],0.778 µM (active)
same,GI50,[57],4.27 µM (inactive)
same,GI50,[58],3.24 µM (inactive)
same,GI50,[59],2.2 µM (inactive)
same,GI50,[60],2.35 µM (inactive)
same,GI50,[61],4.61 µM (inactive)
same,GI50,[62],1.16 µM (inactive)
same,GI50,[63],2.85 µM (inactive)
same,GI50,[64],2.65 µM (inactive)
same,GI50,[65],1.59 µM (inactive)
same,GI50,[66],2.35 µM (inactive)
Brc1ccc(N2C[N+](c3ccc(Br)cc3)=NC(c3ccccc3)=N2)cc1.[O-][Cl+3]([O-])([O-])[O-],GI50,[1],> 100 µM (inactive)
same,GI50,[2],> 100 µM (inactive)
same,GI50,[5],> 100 µM (inactive)
same,GI50,[6],> 100 µM (inactive)
same,GI50,[7],> 100 µM (inactive)
same,GI50,[8],> 100 µM (inactive)
same,GI50,[9],77.1 µM (inactive)
same,GI50,[10],> 100 µM (inactive)
same,GI50,[11],> 100 µM (inactive)
same,GI50,[12],> 100 µM
same,GI50,[14],> 100 µM (inactive)
same,GI50,[15],> 100 µM (inactive)
same,GI50,[16],> 100 µM (inactive)
same,GI50,[17],> 100 µM (inactive)
same,GI50,[19],> 100 µM (inactive)
same,GI50,[20],> 100 µM (inactive)
same,GI50,[22],50.1 µM (inactive)
same,GI50,[23],63.4 µM (inactive)
same,GI50,[24],45.2 µM (inactive)
same,GI50,[25],> 100 µM (inactive)
same,GI50,[26],49.2 µM (inactive)
same,GI50,[27],36.7 µM (inactive)
same,GI50,[28],> 100 µM (inactive)
same,GI50,[29],> 100 µM (inactive)
same,GI50,[30],> 100 µM (inactive)
same,GI50,[31],> 100 µM (inactive)
same,GI50,[67],74.1 µM (inactive)
same,GI50,[32],36 µM (inactive)
same,GI50,[33],> 100 µM (inactive)
same,GI50,[34],> 100 µM (inactive)
same,GI50,[35],76.4 µM (inactive)
same,GI50,[36],70.5 µM (inactive)
same,GI50,[37],50.2 µM (inactive)
same,GI50,[39],49.9 µM (inactive)
same,GI50,[40],> 100 µM (inactive)
same,GI50,[42],46.6 µM (inactive)
same,GI50,[43],59.8 µM (inactive)
same,GI50,[44],25.1 µM (inactive)
same,GI50,[46],99.3 µM (inactive)
same,GI50,[47],33.9 µM (inactive)
same,GI50,[48],> 100 µM (inactive)
same,GI50,[49],> 100 µM (inactive)
same,GI50,[50],> 100 µM (inactive)
same,GI50,[52],75.9 µM (inactive)
same,GI50,[54],> 100 µM (inactive)
same,GI50,[56],58.3 µM (inactive)
same,GI50,[57],> 100 µM (inactive)
same,GI50,[58],> 100 µM (inactive)
same,GI50,[61],43 µM (inactive)
same,GI50,[62],46.9 µM (inactive)
same,GI50,[63],31.3 µM (inactive)
same,GI50,[64],30.3 µM (inactive)
same,GI50,[65],29.4 µM (inactive)
same,GI50,[66],> 100 µM (inactive)
